Molecular target: T1, SIRT1 (Homo sapiens, UniProt Q96EB6)
T1 sequence (Q96EB6 1-747): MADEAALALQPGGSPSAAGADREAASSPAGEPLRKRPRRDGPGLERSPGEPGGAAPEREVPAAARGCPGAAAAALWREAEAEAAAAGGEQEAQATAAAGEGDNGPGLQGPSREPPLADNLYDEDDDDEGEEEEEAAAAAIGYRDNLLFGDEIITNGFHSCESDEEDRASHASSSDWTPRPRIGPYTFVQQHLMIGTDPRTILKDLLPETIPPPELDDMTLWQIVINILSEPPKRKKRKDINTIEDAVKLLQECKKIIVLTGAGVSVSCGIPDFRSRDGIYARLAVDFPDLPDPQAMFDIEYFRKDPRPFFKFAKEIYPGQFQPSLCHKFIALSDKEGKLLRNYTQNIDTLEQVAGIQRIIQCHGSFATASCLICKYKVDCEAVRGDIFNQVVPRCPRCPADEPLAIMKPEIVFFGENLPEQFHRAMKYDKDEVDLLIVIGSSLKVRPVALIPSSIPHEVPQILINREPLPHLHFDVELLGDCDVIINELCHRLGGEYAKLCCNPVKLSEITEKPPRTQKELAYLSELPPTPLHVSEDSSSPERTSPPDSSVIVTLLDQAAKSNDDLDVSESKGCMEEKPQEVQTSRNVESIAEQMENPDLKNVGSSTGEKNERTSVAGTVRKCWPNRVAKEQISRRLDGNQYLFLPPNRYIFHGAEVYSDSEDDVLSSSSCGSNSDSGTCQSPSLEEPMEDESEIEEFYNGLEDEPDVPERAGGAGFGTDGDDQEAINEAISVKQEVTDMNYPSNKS
Assay: Mass spectrometry based SIRT1 deacetylase activation assay (acetylated p53-derived peptide substrate)
Assay type: biochemical
Details: 0.5 μM peptide substrate, 120 μM βNAD+, 10 nM SIRT1, 25 minutes at 25° C.

Row | SMILES | EC1.5 | Fold Act. (percent maximum fold activation)
1 | Cc1cnc(NC(=O)c2cncc3nc(-c4ccc(OC[C@@H](O)CO)cc4C(F)F)[nH]c23)s1 [Compound 772] | A (EC1.5<1.0 uM) | A (Fold activation >200%)
2 | O=C(Nc1cccnn1)c1cccc2[nH]c(-c3ccc(N4CCCC4)cc3C(F)F)nc12 [Compound 775] | A (EC1.5<1.0 uM) | A (Fold activation >200%)
3 | O=C(Nc1ccncn1)c1cccc2[nH]c(-c3ccc(N4CCCC4)cc3C(F)F)nc12 [Compound 776] | A (EC1.5<1.0 uM) | A (Fold activation >200%)
4 | O=C(Nc1ncc(CN2CCOCC2)s1)c1cccc2[nH]c(-c3ccccc3C(F)(F)F)nc12 [Compound 780, N-(5-(morpholinomethyl)thiazol-2-yl)-2-(2-(trifluoromethyl)phenyl)-1H-benzo[d]imidazole-4-carboxamide] | C (EC1.5 >25 uM) | B (Fold Activation <200%)
5 | Cc1cnc(NC(=O)c2cc(N3CCCC3)cc3[nH]c(-c4ccccc4C(F)F)nc23)s1 [Compound 790] | A (EC1.5<1.0 uM) | A (Fold activation >200%)
6 | O=C(Nc1ccccn1)c1cc(N2CCCC2)cc2[nH]c(-c3ccccc3C(F)F)nc12 [Compound 791] | A (EC1.5<1.0 uM) | A (Fold activation >200%)
7 | O=C(Nc1nc(CN2CCOCC2)cs1)c1cccc2[nH]c(-c3cccc(Cl)c3)nc12 [Compound 796] | B (EC1.5 1-25 uM) | B (Fold Activation <200%)
8 | O=C(Nc1nccs1)c1cncc2[nH]c(-c3ccc(N4CCCC4)cc3C(F)F)nc12 [Compound 799] | A (EC1.5<1.0 uM) | A (Fold activation >200%)
9 | Cc1cnc(NC(=O)c2cncc3[nH]c(-c4ccc(N5CCCC5)cc4C(F)F)nc23)s1 [Compound 800] | A (EC1.5<1.0 uM) | A (Fold activation >200%)
10 | O=C(Nc1ccccn1)c1cncc2[nH]c(-c3ccc(N4CCCC4)cc3C(F)F)nc12 [Compound 801] | A (EC1.5<1.0 uM) | A (Fold activation >200%)
11 | O=C(Nc1cccnn1)c1cncc2[nH]c(-c3ccc(N4CCCC4)cc3C(F)F)nc12 [Compound 802] | A (EC1.5<1.0 uM) | A (Fold activation >200%)
12 | O=C(Nc1ccncn1)c1cncc2[nH]c(-c3ccc(N4CCCC4)cc3C(F)F)nc12 [Compound 803] | A (EC1.5<1.0 uM) | A (Fold activation >200%)
13 | O=C(Nc1nccs1)c1cncc2[nH]c(-c3ccc(N4CCOCC4)cc3C(F)F)nc12 [Compound 804] | A (EC1.5<1.0 uM) | A (Fold activation >200%)
14 | Cc1cnc(NC(=O)c2cncc3[nH]c(-c4ccc(N5CCOCC5)cc4C(F)F)nc23)s1 [Compound 805] | A (EC1.5<1.0 uM) | A (Fold activation >200%)
15 | O=C(Nc1ccccn1)c1cncc2[nH]c(-c3ccc(N4CCOCC4)cc3C(F)F)nc12 [Compound 806] | A (EC1.5<1.0 uM) | A (Fold activation >200%)
16 | O=C(Nc1cccnc1)c1cncc2[nH]c(-c3ccc(N4CCOCC4)cc3C(F)F)nc12 [Compound 807] | A (EC1.5<1.0 uM) | A (Fold activation >200%)
17 | O=C(Nc1nccs1)c1cncc2nc(-c3ccc(OC[C@H](O)CO)cc3C(F)F)[nH]c12 [Compound 808] | A (EC1.5<1.0 uM) | A (Fold activation >200%)
18 | Cc1cnc(NC(=O)c2cncc3nc(-c4ccc(OC[C@H](O)CO)cc4C(F)F)[nH]c23)s1 [Compound 809] | A (EC1.5<1.0 uM) | A (Fold activation >200%)
19 | O=C(Nc1cccnc1)c1cncc2nc(-c3ccc(N4CCCC4)cc3C(F)F)[nH]c12 [Compound 812] | A (EC1.5<1.0 uM) | A (Fold activation >200%)

Continued, values first:

Row | EC1.5 | Fold Act. (percent maximum fold activation) | SMILES
20 | A (EC1.5<1.0 uM) | A (Fold activation >200%) | O=C(Nc1ccccn1)c1cncc2[nH]c(-c3ccc(OC[C@@H](O)CO)cc3C(F)F)nc12 [Compound 773]
21 | A (EC1.5<1.0 uM) | A (Fold activation >200%) | O=C(Nc1cccnc1)c1cccc2[nH]c(-c3ccc(N4CCCC4)cc3C(F)F)nc12 [Compound 774]
22 | A (EC1.5<1.0 uM) | A (Fold activation >200%) | O=C(Nc1ccc(OC[C@H](O)CO)cc1)c1cccc2[nH]c(-c3cccc(N4CCOCC4)c3)nc12 [Compound 777]
23 | A (EC1.5<1.0 uM) | A (Fold activation >200%) | O=C(Nc1ccc(OC[C@H](O)CO)cc1)c1cccc2[nH]c(-c3cccc(N4CCCC4)c3)nc12 [Compound 778]
24 | A (EC1.5<1.0 uM) | A (Fold activation >200%) | O=C(Nc1cccc(OC[C@H](O)CO)c1)c1cccc2[nH]c(-c3ccc(N4CC[C@H](F)C4)cc3C(F)(F)F)nc12 [Compound 779]
25 | A (EC1.5<1.0 uM) | A (Fold activation >200%) | O=C(Nc1cccc(OC[C@H](O)CO)c1)c1cccc2[nH]c(-c3cccc(F)c3)nc12 [Compound 781]
26 | A (EC1.5<1.0 uM) | A (Fold activation >200%) | O=C(Nc1cccc(OC[C@H](O)CO)c1)c1cccc2[nH]c(-c3cccc(Cl)c3)nc12 [Compound 782]
27 | A (EC1.5<1.0 uM) | A (Fold activation >200%) | O=C(Nc1cccc(OC[C@H](O)CO)c1)c1cccc2[nH]c(-c3ccncc3)nc12 [Compound 783]
28 | A (EC1.5<1.0 uM) | A (Fold activation >200%) | O=C(Nc1cccc(OC[C@H](O)CO)c1)c1cccc2[nH]c(-c3ccccc3F)nc12 [Compound 784]
29 | A (EC1.5<1.0 uM) | A (Fold activation >200%) | O=C(Nc1cccc(OC[C@H](O)CO)c1)c1cccc2[nH]c(-c3cc(F)ccc3F)nc12 [Compound 785]
30 | A (EC1.5<1.0 uM) | A (Fold activation >200%) | O=C(Nc1cccc(OC[C@H](O)CO)c1)c1cccc2[nH]c(-c3cc(F)cc(F)c3)nc12 [Compound 786]
31 | A (EC1.5<1.0 uM) | A (Fold activation >200%) | O=C(Nc1ccc(OC[C@@H](O)CO)cc1)c1cccc2[nH]c(-c3cccc(N4CCOCC4)c3)nc12 [Compound 787]
32 | A (EC1.5<1.0 uM) | A (Fold activation >200%) | O=C(Nc1ccc(OC[C@@H](O)CO)cc1)c1cccc2[nH]c(-c3cccc(N4CCCC4)c3)nc12 [Compound 788]
33 | A (EC1.5<1.0 uM) | A (Fold activation >200%) | Cc1nc(C)c(-c2nc3c(C(=O)Nc4ccc(OC[C@@H](O)CO)cc4)cccc3[nH]2)s1 [Compound 789]
34 | A (EC1.5<1.0 uM) | A (Fold activation >200%) | O=C(Nc1cccnc1)c1cc(N2CCCC2)cc2[nH]c(-c3ccccc3C(F)F)nc12 [Compound 792]
35 | A (EC1.5<1.0 uM) | A (Fold activation >200%) | Cc1cc(OC[C@H](O)CO)ccc1-c1nc2c(C(=O)Nc3nccs3)cccc2[nH]1 [Compound 793]
36 | A (EC1.5<1.0 uM) | A (Fold activation >200%) | O=C(Nc1cccc(OCC(O)CO)c1)c1cccc2[nH]c(-c3cccnc3)nc12 (stereo not shown) [Compound 794]
37 | C (EC1.5 >25 uM) | B (Fold Activation <200%) | O=C(Nc1nc(CN2CCOCC2)cs1)c1cccc2[nH]c(-c3cccnc3)nc12 [Compound 795]
38 | A (EC1.5<1.0 uM) | A (Fold activation >200%) | O=C(Nc1ccc(OC[C@H](O)CO)cc1)c1cccc2[nH]c(-c3cccnc3)nc12 [Compound 797]
39 | A (EC1.5<1.0 uM) | A (Fold activation >200%) | Cc1nc(C)c(-c2nc3c(C(=O)Nc4ccc(OC[C@H](O)CO)cc4)cccc3[nH]2)s1 [Compound 798]
40 | A (EC1.5<1.0 uM) | A (Fold activation >200%) | O=C(Nc1ccccn1)c1cncc2nc(-c3ccc(OC[C@H](O)CO)cc3C(F)F)[nH]c12 [Compound 810]
41 | A (EC1.5<1.0 uM) | A (Fold activation >200%) | O=C(Nc1cccc(OC[C@H](O)CO)c1)c1cc(F)cc2[nH]c(-c3ccccc3C(F)F)nc12 [Compound 811, (R)-2-(2-(difluoromethyl)phenyl)-N-(3-(2,3-dihydroxypropoxy)phenyl)-6-fluoro-1H-benzo[d]imidazole-4-carboxamide]
